Experimental data published in patent US20230248834A1, “DEGRADATION OF (EGFR) BY CONJUGATION OF EGFR INHIBITORS WITH E3 LIGASE LIGAND AND METHODS OF USE” (BEIGENE, LTD., priority 2020, published 2023).

Assays:
EGFR L858R/T790M/C797S = molecular target: T1, EGFR L858R/T790M/C797S (Homo sapiens, UniProt P00533, C797S/L858R/T790M); test: EGFR degradation HTRF assay in BaF3-LTC cells; assay type: cell-based; conditions: BaF3-LTC (L858R/T790M/C797S), maximum percentage of inhibition (degradation); read-out: BaF3-LTC Dmax (%)
T1 construct: expressed in transfected cells; host or cells: BaF3-LTC
In short: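 BaF3 cells expressing EGFR L858R/C797S or L858R/T790M/C797S treated 16 h at 37 °C with compounds (top 10 uM, 5-fold, 8 doses; 0.2% DMSO). Remaining EGFR quantified by HTRF in lysates after overnight antibody incubation. Degradation percentage versus DMSO controls; DC50 from four-parameter fit, Dmax as maximal degradation.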

EGFR L858R/C797S = molecular target: T2, EGFR L858R/C797S (Homo sapiens, UniProt P00533, C797S/L858R); test: EGFR degradation HTRF assay in BaF3 LC cells; assay type: cell-based; conditions: BaF3 LC (L858R/C797S), maximum percentage of inhibition (degradation); read-out: BaF3 LC Dmax (%)
T2 construct: expressed in transfected cells; host or cells: BaF3 LC
Procedure: BaF3-LTC(L858R/T790M/C797S) cells and BaF3 LC(L858R/C797S) cells are treated with compounds diluted in 0.2% DMSO cell culture medium and incubate for 16 h, 37° C., 5% CO2. the final concentration of compounds in all assay is start with 10 uM, 5-fold dilution, total 8 doses were included.
After 16 h treatment, add HTRF lysis buffer to each well; seal the plate and incubate 1 hour at room temperature on a plate shaker; Once the cells are lysed, 16 μL of cell lysate are transferred to a PE 384-well HTRF detection plate; 4 μL of pre-mixed HTRF antibodies are added to each well; Cover the plate with a plate sealer, spin 1000 rpm for 1 min, Incubate overnight at room temperature; Read on BMG PheraStar with HTRF protocol (337 nm-665 nm-620 nm).
The inhibition (degradation) percentage of the compound was calculated by the following equation: Inhibition percentage of Compound=100−100×(Signal−low control)/(High control−low control), wherein signal=each test compound group
High control=Cell group with added DMSO and without compound, indicating microplate readings without EGFR degradation;
Dmax is the maximum percentage of inhibition (degradation).
The IC50 (DC50) value of a compound can be obtained by fitting the following equation
Y=Bottom+(TOP−Bottom)/(1+((IC50/X)^hillslope))
Wherein, X and Y are known values, and IC50, Hillslope, Top and Bottom are the parameters obtained by fitting with software. Y is the inhibition percentage (calculated from the equation), X is the concentration of the compound; IC50 is the concentration of the compound when the 50% inhibition is reached. The smaller the IC50 value is, the stronger the inhibitory ability of the compound is. Vice versa, the higher the IC50 value is, the weaker the inhibitory ability of the compound is; Hillslope represents the slope of the fitted curve, generally around 1*; Bottom represents the minimum value of the curve obtained by data fitting, which is generally 0%±20%; Top represents the maximum value of the curve obtained by data fitting, which is generally 100%±20%. The experimental data were fitted by calculating and analyzing with Dotmatics data analysis software.

T2 sequence (P00533 25-1210 C797S/L858R): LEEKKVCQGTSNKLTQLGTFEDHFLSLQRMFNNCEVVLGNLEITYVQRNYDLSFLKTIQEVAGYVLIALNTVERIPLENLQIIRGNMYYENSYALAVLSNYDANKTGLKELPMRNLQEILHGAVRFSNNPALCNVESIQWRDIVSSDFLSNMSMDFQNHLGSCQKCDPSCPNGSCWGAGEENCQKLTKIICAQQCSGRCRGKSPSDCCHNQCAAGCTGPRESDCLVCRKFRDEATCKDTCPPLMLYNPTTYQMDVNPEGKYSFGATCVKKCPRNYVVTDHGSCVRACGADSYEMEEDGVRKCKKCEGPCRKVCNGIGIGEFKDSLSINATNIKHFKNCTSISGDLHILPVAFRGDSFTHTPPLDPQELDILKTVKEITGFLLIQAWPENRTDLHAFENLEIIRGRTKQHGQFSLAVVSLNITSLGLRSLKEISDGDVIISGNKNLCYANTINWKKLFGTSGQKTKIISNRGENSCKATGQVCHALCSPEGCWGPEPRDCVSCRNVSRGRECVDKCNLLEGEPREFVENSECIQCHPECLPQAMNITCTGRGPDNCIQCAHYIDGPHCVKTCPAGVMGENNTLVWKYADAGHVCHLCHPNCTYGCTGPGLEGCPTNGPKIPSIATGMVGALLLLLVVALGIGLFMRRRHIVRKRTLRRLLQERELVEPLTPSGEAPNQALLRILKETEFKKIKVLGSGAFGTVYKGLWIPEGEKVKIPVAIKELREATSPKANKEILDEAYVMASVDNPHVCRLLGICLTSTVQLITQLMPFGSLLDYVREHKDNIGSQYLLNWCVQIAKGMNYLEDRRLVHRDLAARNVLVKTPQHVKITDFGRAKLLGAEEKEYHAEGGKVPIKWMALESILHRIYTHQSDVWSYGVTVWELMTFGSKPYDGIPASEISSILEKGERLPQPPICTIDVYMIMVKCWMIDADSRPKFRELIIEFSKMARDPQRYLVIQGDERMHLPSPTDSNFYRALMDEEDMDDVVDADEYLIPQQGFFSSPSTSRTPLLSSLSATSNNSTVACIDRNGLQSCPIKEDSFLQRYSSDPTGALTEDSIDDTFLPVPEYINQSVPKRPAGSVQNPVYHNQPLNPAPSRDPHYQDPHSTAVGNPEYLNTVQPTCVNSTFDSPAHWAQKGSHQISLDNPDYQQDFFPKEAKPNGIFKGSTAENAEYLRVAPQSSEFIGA
T1 sequence (P00533 25-1210 T790M/C797S/L858R): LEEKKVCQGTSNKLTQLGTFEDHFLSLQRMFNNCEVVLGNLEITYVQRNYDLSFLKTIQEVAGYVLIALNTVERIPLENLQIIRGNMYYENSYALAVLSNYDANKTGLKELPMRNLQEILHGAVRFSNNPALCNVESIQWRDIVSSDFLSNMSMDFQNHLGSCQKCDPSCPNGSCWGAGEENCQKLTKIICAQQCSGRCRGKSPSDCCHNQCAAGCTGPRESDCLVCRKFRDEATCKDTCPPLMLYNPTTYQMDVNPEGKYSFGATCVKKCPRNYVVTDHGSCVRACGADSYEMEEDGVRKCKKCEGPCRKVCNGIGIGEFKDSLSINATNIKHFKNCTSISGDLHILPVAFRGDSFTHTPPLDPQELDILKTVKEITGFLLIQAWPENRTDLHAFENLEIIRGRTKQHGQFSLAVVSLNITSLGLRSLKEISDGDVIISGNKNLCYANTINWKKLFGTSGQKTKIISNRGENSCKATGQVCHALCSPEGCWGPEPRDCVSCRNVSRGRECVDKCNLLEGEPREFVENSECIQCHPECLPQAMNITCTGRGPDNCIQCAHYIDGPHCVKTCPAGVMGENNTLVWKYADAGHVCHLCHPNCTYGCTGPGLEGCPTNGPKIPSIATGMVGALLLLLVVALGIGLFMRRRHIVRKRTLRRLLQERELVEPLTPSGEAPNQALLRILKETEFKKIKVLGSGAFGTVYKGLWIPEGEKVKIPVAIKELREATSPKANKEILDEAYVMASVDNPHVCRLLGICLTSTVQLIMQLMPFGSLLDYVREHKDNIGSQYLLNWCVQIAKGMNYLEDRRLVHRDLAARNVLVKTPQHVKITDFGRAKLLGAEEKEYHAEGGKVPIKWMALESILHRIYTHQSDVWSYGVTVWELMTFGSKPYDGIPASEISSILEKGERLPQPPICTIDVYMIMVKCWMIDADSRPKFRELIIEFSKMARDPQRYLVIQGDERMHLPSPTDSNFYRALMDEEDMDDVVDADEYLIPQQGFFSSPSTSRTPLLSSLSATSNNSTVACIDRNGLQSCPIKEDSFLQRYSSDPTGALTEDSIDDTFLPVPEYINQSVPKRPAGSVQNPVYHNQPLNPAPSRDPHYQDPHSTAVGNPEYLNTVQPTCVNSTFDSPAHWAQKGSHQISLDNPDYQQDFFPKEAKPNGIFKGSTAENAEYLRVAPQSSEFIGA

Dmax (EGFR L858R/T790M/C797S) | Dmax (EGFR L858R/C797S) | Structure (SMILES)
92.4% | 90.4% | CCOc1cc(N2CCC(N3CCN(CCc4c(F)ccc5c4n(CC)c(=O)n5C4CCC(=O)NC4=O)CC3)CC2)c(CC)cc1Nc1ncc(Br)c(Nc2ccc3c(=O)n(CC)ncc3c2P(C)(C)=O)n1 (stereo not drawn) [Example 559, 3-(4-(2-(4-(1-(4-((5-bromo-4-((5-(dimethylphosphoryl)-2-ethyl-1-oxo-1,2-dihydrophthalazin-6-yl)amino)pyrimidin-2-yl)amino)-5-ethoxy-2-ethylphenyl)piperidin-4-yl)piperazin-1-yl)ethyl)-3-ethyl-5-fluoro-2-oxo-2,3-dihydro-1H-benzo[d]imidazol-1-yl)piperidine-2,6-dione]
93.2% | 87.7% | CCOc1cc(N2CCC(N3CCN(CCc4cccc5c4C4(CC4)C(=O)N5C4CCC(=O)NC4=O)CC3)CC2)c(CC)cc1Nc1ncc(Br)c(Nc2ccc3nc(CC)ccc3c2P(C)(C)=O)n1 (stereo not drawn) [Example 571, 3-(4′-(2-(4-(1-(4-((5-bromo-4-((5-(dimethylphosphoryl)-2-ethylquinolin-6-yl)amino)pyrimidin-2-yl)amino)-5-ethoxy-2-ethylphenyl)piperidin-4-yl)piperazin-1-yl)ethyl)-2′-oxospiro[cyclopropane-1,3′-indolin]-1′-yl)piperidine-2,6-dione]
90.3% | 91.8% | CCOc1cc(N2CCC(N3CCN(CCc4cccc5c4C(C)(C)C(=O)N5C4CCC(=O)NC4=O)CC3)CC2)c(CC)cc1Nc1ncc(Br)c(Nc2ccc3nc(CC)ccc3c2P(C)(C)=O)n1 (stereo not drawn) [Example 572, 3-(4-(2-(4-(1-(4-((5-bromo-4-((5-(dimethylphosphoryl)-2-ethylquinolin-6-yl)amino)pyrimidin-2-yl)amino)-5-ethoxy-2-ethylphenyl)piperidin-4-yl)piperazin-1-yl)ethyl)-3,3-dimethyl-2-oxoindolin-1-yl)piperidine-2,6-dione]
92.2% | 95.9% | CCc1cc(Nc2ncc(Br)c(Nc3ccc4nc(C)c(F)cc4c3P(C)(C)=O)n2)c(OC)cc1N1CCC(N2CCN(C(=O)[C@H]3CN(c4cc(F)c([C@H]5CCC(=O)NC5=O)c(F)c4)CC3(C)C)CC2)CC1 [Example 576, (R)-3-(4-((R)-4-(4-(1-(4-((5-bromo-4-((5-(dimethylphosphoryl)-3-fluoro-2-methylquinolin-6-yl)amino)pyrimidin-2-yl)amino)-2-ethyl-5-methoxyphenyl)piperidin-4-yl)piperazine-1-carbonyl)-3,3-dimethylpyrrolidin-1-yl)-2,6-difluorophenyl)piperidine-2,6-dione]
88.6% | 89.1% | CCOc1cc(N2CCC(N3CCN(C(=O)[C@@H]4CCN(c5cc(F)c([C@H]6CCC(=O)NC6=O)c(F)c5)C4)CC3)CC2)c(CC)cc1Nc1ncc(Br)c(Nc2ccc3nc(C)c(F)cc3c2P(C)(C)=O)n1 [Example 577, (R)-3-(4-((R)-3-(4-(1-(4-((5-bromo-4-((5-(dimethylphosphoryl)-3-fluoro-2-methylquinolin-6-yl)amino)pyrimidin-2-yl)amino)-5-ethoxy-2-ethylphenyl)piperidin-4-yl)piperazine-1-carbonyl)pyrrolidin-1-yl)-2,6-difluorophenyl)piperidine-2,6-dione]
95.6% | 92.8% | CCc1ccc2c(P(C)(C)=O)c(Nc3nc(Nc4cc(C)c(N5CCC(N6CCN(CCc7cccc8c7n(C)c(=O)n8C7CCC(=O)NC7=O)CC6)CC5)cc4OC4CC4)ncc3Br)ccc2n1 (stereo not drawn) [Example 584, 3-(4-(2-(4-(1-(4-((5-bromo-4-((5-(dimethylphosphoryl)-2-ethylquinolin-6-yl)amino)pyrimidin-2-yl)amino)-5-cyclopropoxy-2-methylphenyl)piperidin-4-yl)piperazin-1-yl)ethyl)-3-methyl-2-oxo-2,3-dihydro-1H-benzo[d]imidazol-1-yl)piperidine-2,6-dione]
85.9% | 92.4% | CCc1ncc2c(P(C)(C)=O)c(Nc3nc(Nc4cc(CC)c(N5CCC(N6CCN(CCc7cc(F)c([C@H]8CCC(=O)NC8=O)c(F)c7)CC6)CC5)cc4OC)ncc3Br)ccc2n1 [Example 589, (R)-3-(4-(2-(4-(1-(4-((5-bromo-4-((5-(dimethylphosphoryl)-2-ethylquinazolin-6-yl)amino)pyrimidin-2-yl)amino)-2-ethyl-5-methoxyphenyl)piperidin-4-yl)piperazin-1-yl)ethyl)-2,6-difluorophenyl)piperidine-2,6-dione]
91.2% | 94.1% | CCOc1cc(N2CCC(N3CCN(CCc4cccc5c4n(CC)c(=O)n5C4CCC(=O)NC4=O)CC3)CC2)c(CC)cc1Nc1ncc(Br)c(Nc2cc(F)c3nc(CC)ccc3c2P(C)(C)=O)n1 (stereo not drawn) [Example 643, 3-(4-(2-(4-(1-(4-((5-bromo-4-((5-(dimethylphosphoryl)-2-ethyl-8-fluoroquinolin-6-yl)amino)pyrimidin-2-yl)amino)-5-ethoxy-2-ethylphenyl)piperidin-4-yl)piperazin-1-yl)ethyl)-3-ethyl-2-oxo-2,3-dihydro-1H-benzo[d]imidazol-1-yl)piperidine-2,6-dione]
95.4% | 94.3% | CCc1cc(Nc2ncc(Br)c(Nc3ccc4nc(C)ccc4c3P(C)(C)=O)n2)c(OC)cc1N1CCC(N2CCN(C(=O)[C@@H]3CCN(c4cc(F)c([C@H]5CCC(=O)NC5=O)c(F)c4)C3)CC2)CC1 [Example 750, (R)-3-(4-((R)-3-(4-(1-(4-((5-bromo-4-((5-(dimethylphosphoryl)-2-methylquinolin-6-yl)amino)pyrimidin-2-yl)amino)-2-ethyl-5-methoxyphenyl)piperidin-4-yl)piperazine-1-carbonyl)pyrrolidin-1-yl)-2,6-difluorophenyl)piperidine-2,6-dione]
94.7% | 94% | CCOc1cc(N2CCC(N3CCN(CCc4cccc5c4n(C)c(=O)n5C4CCC(=O)NC4=O)CC3)CC2)c(CC)cc1Nc1ncc(Br)c(Nc2ccc3nc(CC)ccc3c2P(C)(C)=O)n1 (stereo not drawn) [Example 752, 3-(4-(2-(4-(1-(4-((5-bromo-4-((5-(dimethylphosphoryl)-2-ethylquinolin-6-yl)amino)pyrimidin-2-yl)amino)-5-ethoxy-2-ethylphenyl)piperidin-4-yl)piperazin-1-yl)ethyl)-3-methyl-2-oxo-2,3-dihydro-1H-benzo[d]imidazol-1-yl)piperidine-2,6-dione]
93.2% | 88.9% | CCc1cc(Nc2ncc(Br)c(Nc3ccc4c(=O)n(CC)ncc4c3P(C)(C)=O)n2)c(OC)cc1N1CCC(N2CCN(CCc3cc(F)c([C@H]4CCC(=O)NC4=O)c(F)c3)CC2)CC1 [Example 753, (R)-3-(4-(2-(4-(1-(4-((5-bromo-4-((5-(dimethylphosphoryl)-2-ethyl-1-oxo-1,2-dihydrophthalazin-6-yl)amino)pyrimidin-2-yl)amino)-2-ethyl-5-methoxyphenyl)piperidin-4-yl)piperazin-1-yl)ethyl)-2,6-difluorophenyl)piperidine-2,6-dione]
96.3% | 87.3% | CCc1ccc2c(P(C)(C)=O)c(Nc3nc(Nc4cc(CC)c(N5CCC(N6CCN(C(=O)[C@H]7CN(c8cc(F)c([C@H]9CCC(=O)NC9=O)c(F)c8)CC7(C)C)CC6)CC5)cc4OC)ncc3Br)ccc2n1 [Example 754, (R)-3-(4-((R)-4-(4-(1-(4-((5-bromo-4-((5-(dimethylphosphoryl)-2-ethylquinolin-6-yl)amino)pyrimidin-2-yl)amino)-2-ethyl-5-methoxyphenyl)piperidin-4-yl)piperazine-1-carbonyl)-3,3-dimethylpyrrolidin-1-yl)-2,6-difluorophenyl)piperidine-2,6-dione]
